Tested on: athletes
Assay: comparative study of amino acids mixture, creatine and placebo in athletes: bench press, squat, braked bicycle ergometer
Type: in vivo, humans
Description: The effects on energy balance of the an amino acids mixture according to the invention as above indicated were the subject of a comparative study with creatine, on a weight ratio (w/w), or with no treatment, on a large group of volunteers submitted to a rigid protocol of alimentation and training. […] In some athletes, also heart frequency rate and VO2 max were registered while performing a treadmill test, before arid at the end of this study.

[1] = after one month of treatment and training, mixture 24 g/d, creatine 25 g/d

SMILES: CN(CC(=O)O)C(=N)N [creatine]
- performances over basal and no treatment group (after one month): significant improvements of performances
- Bench press [1]: 177 ± 34 kg
- Squat Room. [1]: 148.5 ± 31.2 kg
- Watt/Kg max (maximal power productive performance on a braked bicycle ergometer) [1]: 9.8 ± 0.6 watt/kg max

— patent publication US20030187049A1, “Compositions based on aminoacids, suitable for improving muscle performance” (priority 2003, published 2003)
